{"source": "patent US10300070B2", "about": "“Metabolically-activated drug conjugates to overcome resistance in cancer therapy” (The Brigham and Women's Hospital, Inc., priority 2014, dated 2019)", "assay_type_in_all_cases": "cell-based", "key": {"[1]": {"system": "CD44", "experiment": "Cell surface CD44 expression by FACS", "conditions": "for CD44 expression after exogenous cytokine: MDA-MB-231, within 4 hours", "procedure": "DU145 and DU145-TxR were provided by A. Mizokami^63 and cultured in DMEM containing 10% FBS, resistant line included 100 nM paclitaxel in the culture media. During treatments with chemotherapeutics, cells were grown to semi-confluence and treated with indicated concentrations of chemotherapy in serum-containing medium for indicated time points. When small molecule inhibitors were included in treatments, they were added simultaneously with chemotherapy. […] Scrambled siRNA was used as a control. For chemotherapy treatment experiments: Cancer cells were plated at a density of 0.5-1×10^5 cells/ml and allowed to adhere for 24-48 hr. […] Following washes with PBS, adherent cells were trypsinized and re-plated at a density of 1.5-2×10^5 cells/ml and cultured in serum-containing medium. […] A population of drug naïve parent cells were always cultured alongside DTC and fresh media was added at every interval that experimental population (DTC) received fresh media.\nCells were cultured as indicated, removed from culture dishes with accutase stem-pro dissociation reagent (Invitrogen, Carlsbad Calif.) and fixed with 4% paraformaldehyde in PBS for 30 min at RT, washed twice with PBS and blocked in 10% goat serum (v/v). Whenever necessary, cells were permeabilized with 0.05% saponin in PBS. Cells were incubated with CD44-APC (BD biosciences, San Jose, Calif.) overnight at 4 C and analyzed by FACS (C6 Accuri cyomteters Inc Ann Arbor, Mich.), data analysis using FlowJo software (Tree Star Inc., Ashland Oreg.) and Accuri cFlow plus software to obtain and confirm mean fluorescent intensity (GNU.org)."}, "[2]": {"system": "MDA-MB-231 parent or DTC", "experiment": "Glucose uptake (2-NBDG) determined by FACS", "conditions": "for suppression of glucose consumption (2-NBDG uptake): incubation 3 h, DTC compared to drug naïve parent cells; for 2-NBDG uptake after exogenously-added cytokines: MDA-MB-231 parent cells, 24 hours incubation, 50 ng/ml", "procedure": "(§1) MDA-MB-231 (ATCC), MDA-MB-468 and 4T-1 mammary carcinoma cells (ATCC) were cultured in DMEM containing 10% Fetal Bovine Serum (FBS) at 37 C and 5% CO2. DU145 and DU145-TxR were provided by A. Mizokami^63 and cultured in DMEM containing 10% FBS, resistant line included 100 nM paclitaxel in the culture media. During treatments with chemotherapeutics, cells were grown to semi-confluence and treated with indicated concentrations of chemotherapy in serum-containing medium for indicated time points. When small molecule inhibitors were included in treatments, they were added simultaneously with chemotherapy. For siRNA gene knockdown, cells were transfected with silencer-select siRNA plasmids (Ambion, Invitrogen, Grand Island, N.Y.) pan-CD44(1) (s2682) panCD44(2) (s2681), siHIF1A (s6539) using lipofectamine 2000 (Invitrogen, Carlsbad Calif.) following manufacturer protocol and cultured for 72 hours prior to treatment. Scrambled siRNA was used as a control. For chemotherapy treatment experiments: Cancer cells were plated at a density of 0.5-1×10^5 cells/ml and allowed to adhere for 24-48 hr. When cells reached ˜70% confluency they were treated with cytotoxics at indicated concentrations for 24-48 hours and utilized for subsequent assays. For experiments in which a shorter incubation was used (i.e. 15 min-4 hours) fresh media was added 24 hours prior to addition of chemotherapy suspended to stock concentration in PBS. For generation of DTC: Cells were treated for 48 hours with chemotherapy. Following washes with PBS, adherent cells were trypsinized and re-plated at a density of 1.5-2×10^5 cells/ml and cultured in serum-containing medium. After 24 hours incubation, floating cells were removed and remaining cells were washed with 1× PBS and considered as chemotherapy-tolerant cells. A population of drug naïve parent cells were always cultured alongside DTC and fresh media was added at every interval that experimental population (DTC) received fresh media.\nIn vitro detection of glucose uptake was performed using 2-(N-7-Nitrobenz-2-oxa-1,3-diazol-4-yl)Amino)-2-Deoxyglucose (2-NBDG) (Invitrogen, Carlsbad Calif.), dissolved in DMSO to 50 mM. Cells were pre-treated with kinase inhibitors or vehicle for 3 hours in glucose- and phenol red-free media before addition of 50 μM 2-NBDG and subsequently read by FACS ex/em 488/535 nm. ROS was determined by pre-loading cells with CM-DCFDA (1 μM), washed 2 times with PBS and subsequently treated with H2O2 or vehicle; when kinase inhibitors were included in treatment, cells were first incubated with inhibitor for 3 hours prior to CM-DCFDA loading. Fluorescence was then determined by FACS ex/em 488/535 nm. For the following assays, cells were trypsinized and counted by Nexcelom cell counter (Lawrence, Mass.) prior to being subjected to analysis in order to achieve a quantitative value per cell: Reduced glutathione was determined using a colorimetric glutathione recycling system by DTNB following manufacturer protocol (Biovision, Milpitas Calif.). ATP analysis was performed using the ATP colorimetric analysis kit (Biovision) according to manufacturer protocol. Reductive stress was detected using the Enzo nitroreductase hypoxia kit (Enzo Life Sciences, Ann Arbor Mich.) following manufacturer protocol and visualized by fluorescent microscopy; a set of non-docetaxel-treated control cells loaded with fluorescent probe were compared against docetaxel-treated cells to derive a % redox stress increase which was calculated as fluorescence intensity of nitroreductase probe per cell and expressed as increase from vehicle. Protein synthesis was measured by two means 1. L-azidohomoalanine amino acid analog of methionine containing an azide moiety was added to cultured cells (parent or DTC) for 3 hours which is incorporated into proteins during active protein synthesis. […]"}, "[3]": {"system": "DTC", "experiment": "Total intracellular reduced glutathione (GSH) in drug tolerant cells", "conditions": "acute (3 hours) exposure; ML-265 10 μM, catalase 2000 U/ml", "procedure": "In vitro detection of glucose uptake was performed using 2-(N-7-Nitrobenz-2-oxa-1,3-diazol-4-yl)Amino)-2-Deoxyglucose (2-NBDG) (Invitrogen, Carlsbad Calif.), dissolved in DMSO to 50 mM. Cells were pre-treated with kinase inhibitors or vehicle for 3 hours in glucose- and phenol red-free media before addition of 50 μM 2-NBDG and subsequently read by FACS ex/em 488/535 nm. ROS was determined by pre-loading cells with CM-DCFDA (1 μM), washed 2 times with PBS and subsequently treated with H2O2 or vehicle; when kinase inhibitors were included in treatment, cells were first incubated with inhibitor for 3 hours prior to CM-DCFDA loading. Fluorescence was then determined by FACS ex/em 488/535 nm. For the following assays, cells were trypsinized and counted by Nexcelom cell counter (Lawrence, Mass.) prior to being subjected to analysis in order to achieve a quantitative value per cell: Reduced glutathione was determined using a colorimetric glutathione recycling system by DTNB following manufacturer protocol (Biovision, Milpitas Calif.). […] Protein synthesis was measured by two means 1. […] Fluorescence was detected by FACS as described below. […] GFP protein translation was determined by fluorescent microscopy. […] Individual cells were evaluated for fluorescent intensity of caspase-3 activity (red signal intensity) and green fluorescent protein intensity. […]"}, "[4]": {"system": "MDA-MB-231 parent or DTC", "experiment": "Cell viability (MTS) and trypan blue exclusion of parent or DTC treated with doxorubicin", "procedure": "as §1\nFollowing drug incubation, cells were washed and suspended in phenol red-free RPMI or DMEM and subsequently treated with MTS reagent using manufacturer protocol (Promega, Madison, Wis.). Trypan blue exclusion was used to validate experiments and evaluate % of dead cells performed by bright field microscopy."}}, "data": [{"molecule": "Cc1ccc(S(=O)(=O)/C=C/C#N)cc1", "note": "[Bay-11]", "values": [{"measurement": "chemotherapy early-induced CD44 expression", "setting": "[1]; DTX 25 nM, 4 h, Bay-11 10 μM, neutralizing antibodies 2 μg/ml", "result": "modulated chemotherapy early-induced CD44 expression"}]}, {"molecule": "CO[C@H]1C[C@@H]2CC[C@@H](C)[C@@](O)(O2)C(=O)C(=O)N2CCCC[C@H]2C(=O)O[C@H]([C@H](C)C[C@@H]2CC[C@@H](OCCO)[C@H](OC)C2)CC(=O)[C@H](C)/C=C(\\C)[C@@H](O)[C@@H](OC)C(=O)[C@H](C)C[C@H](C)/C=C/C=C/C=C/1C", "note": "[Everolimus, 40-O-(2-hydroxyethyl)-rapamycin]", "values": [{"measurement": "suppression of glucose consumption (2-NBDG uptake)", "setting": "[2]", "result": "greater suppression of glucose consumption in the DTC subset compared to drug naïve parent cells"}]}, {"molecule": "Cn1c2cc([S+](C)[O-])sc2c2cnn(Cc3cccc(N)c3)c(=O)c21", "note": "(stereo not shown) [ML-265]", "values": [{"measurement": "total levels of reduced glutathione (GSH) in DTC", "setting": "[3]", "result": "diminished total levels of reduced glutathione in DTC"}]}, {"molecule": "Oc1cccc(-c2nc(N3CCOCC3)c3oc4ncccc4c3n2)c1", "note": "[PI103, 3-(4-(4-Morpholinyl)pyrido[3′,2′:4,5]furo[3,2-d]pyrimidin-2-yl)phenol]", "values": [{"measurement": "response to dox in combination with inhibitor, DTC", "setting": "[4]; DTC, co-incubated with dox, 48 h, PI103 5 μM, lonidamine 10 μM, KB-458 and KB-697 10 μM", "result": "exquisitely responsive, overtly driven to cell death by dox in combination"}, {"measurement": "response to dox in combination with inhibitor, parent cells", "setting": "[4]; drug naïve parent cells, co-incubated with dox, 48 h", "result": "little synergism or a reversion of synergy"}, {"measurement": "suppression of glucose consumption (2-NBDG uptake)", "setting": "[2]", "result": "greater suppression of glucose consumption in the DTC subset compared to drug naïve parent cells"}]}, {"molecule": "COc1cccc2c1C(=O)c1c(O)c3c(c(O)c1C2=O)C[C@@](O)(C(=O)CO)C[C@@H]3O[C@H]1C[C@H](N)[C@H](O)[C@H](C)O1", "note": "[doxorubicin, (1S,3S)-3-Glycoloyl-3,5,12-trihydroxy-10-methoxy-6,11-dioxo-1,2,3,4,6,11-hexahydro-1-tetracenyl 3-amino-2,3,6-trideoxy-α-L-lyxo-hexopyranoside]", "values": [{"measurement": "response of DTC to doxorubicin (trypan blue exclusion)", "setting": "[4]; 72 h, DTC vs parent", "result": "DTC developed resistance"}, {"measurement": "doxorubicin-mediated toxicity with PPP intermediates", "setting": "[4]; drug naïve parent cells co-treated with exogenous NADPH, GSH or ectopic G6PD expression", "result": "reduction of doxorubicin-mediated toxicity"}]}, {"molecule": "GM-CSF: recombinant cytokine purchased from Biolegend", "values": [{"measurement": "CD44 expression after exogenous cytokine", "setting": "[1]", "result": "able to independently drive CD44 expression in a dose-dependent manner"}, {"measurement": "2-NBDG uptake after exogenously-added cytokines", "setting": "[2]", "result": "didn't observe any alterations in 2-NBDG uptake"}]}, {"molecule": "IFN-γ: recombinant cytokine purchased from Biolegend", "values": [{"measurement": "CD44 expression after exogenous cytokine", "setting": "[1]", "result": "able to independently drive CD44 expression in a dose-dependent manner"}, {"measurement": "2-NBDG uptake after exogenously-added cytokines", "setting": "[2]", "result": "didn't observe any alterations in 2-NBDG uptake"}]}, {"molecule": "IL-6: recombinant cytokine purchased from Biolegend", "values": [{"measurement": "2-NBDG uptake after exogenously-added cytokines", "setting": "[2]", "result": "didn't observe any alterations in 2-NBDG uptake"}]}, {"molecule": "IL-8: recombinant cytokine purchased from Biolegend", "values": [{"measurement": "2-NBDG uptake after exogenously-added cytokines", "setting": "[2]", "result": "didn't observe any alterations in 2-NBDG uptake"}]}, {"molecule": "IL-23: recombinant cytokine purchased from Biolegend (protein, UniProt Q9NPF7 20-189; P29460 23-328, looked up) Interleukin-23 subunit alpha: RAVPGGSSPAWTQCQQLSQKLCTLAWSAHPLVGHMDLREEGDEETTNDVPHIQCGDGCDPQGLRDNSQFCLQRIHQGLIFYEKLLGSDIFTGEPSLLPDSPVGQLHASLLGLSQLLQPEGHHWETQQIPSLSPSQPWQRLLLRFKILRSLQAFVAVAARVFAHGAATLSP Interleukin-12 subunit beta: IWELKKDVYVVELDWYPDAPGEMVVLTCDTPEEDGITWTLDQSSEVLGSGKTLTIQVKEFGDAGQYTCHKGGEVLSHSLLLLHKKEDGIWSTDILKDQKEPKNKTFLRCEAKNYSGRFTCWWLTTISTDLTFSVKSSRGSSDPQGVTCGAATLSAERVRGDNKEYEYSVECQEDSACPAAEESLPIEVMVDAVHKLKYENYTSSFFIRDIIKPDPPKNLQLKPLKNSRQVEVSWEYPDTWSTPHSYFSLTFCVQVQGKSKREKKDRVFTDKTSATVICRKNASISVRAQDRYYSSSWSEWASVPCS", "values": [{"measurement": "CD44 expression after exogenous cytokine", "setting": "[1]", "result": "able to independently drive CD44 expression in a dose-dependent manner"}, {"measurement": "2-NBDG uptake after exogenously-added cytokines", "setting": "[2]", "result": "didn't observe any alterations in 2-NBDG uptake"}]}]}
